Measured values taken from EP0504290B1, “INHIBITORS OF PNEUMOCYSTIS CARINII DIHYDROFOLATE REDUCTASE” (CHIRON CORPORATION, priority 1989, dated 1991).
pIC50, pKi: −log10 of the molar value. Where two headings read alike, the source gives them in different places.

Experiments:
recombinant human DHFR = molecular target: T1, recombinant human DHFR (Homo sapiens, UniProt P00374); assay: Inhibition of recombinant human DHFR activity by substituted phenyl triazines at 25 µM DHF; format: biochemical
T1 sequence (P00374 1-187): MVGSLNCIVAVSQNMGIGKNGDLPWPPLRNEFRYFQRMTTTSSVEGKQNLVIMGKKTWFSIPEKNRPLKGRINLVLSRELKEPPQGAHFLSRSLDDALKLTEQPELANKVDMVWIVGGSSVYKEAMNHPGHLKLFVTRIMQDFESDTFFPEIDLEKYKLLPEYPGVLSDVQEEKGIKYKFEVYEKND

[1] = molecular target: Pneumocystis carinii DHFR (Pneumocystis carinii, UniProt P16184); assay: biochemical
Pneumocystis carinii DHFR, sequence (P16184 whole entry): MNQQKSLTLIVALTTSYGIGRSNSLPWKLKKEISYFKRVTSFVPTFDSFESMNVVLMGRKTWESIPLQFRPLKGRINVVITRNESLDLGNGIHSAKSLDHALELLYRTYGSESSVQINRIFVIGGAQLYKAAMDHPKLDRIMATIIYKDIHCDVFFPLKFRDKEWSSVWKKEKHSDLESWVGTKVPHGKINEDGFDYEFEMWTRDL

P. carinii DHFR = P. carinii DHFR (Pneumocystis carinii, UniProt P16184); assay: biochemical
P. carinii DHFR, sequence (P16184 whole entry): as above

[2] = ratio of human DHFR Ki to P. carinii DHFR Ki

Structure (SMILES)	pIC50 (recombinant human DHFR)	pIC50 [1]	Selectivity, Ki (human)/Ki(Pc) [1, 2]	also measured
CC1(C)N=C(N)N=C(N)N1c1cccc(CNc2cc(C(N)=O)cc(C(N)=O)c2)c1 [3-CH2NHϕ, 3',5'(CONH2)2]	5.55	5.97		Selectivity, Ki (human)/Ki(Pc) [1]: 4.5
CC1(C)N=C(N)N=C(N)N1c1cccc(CNc2ccc(C#N)cc2)c1 [3-CH2NHϕ, 4'CN]	6.28	6.22	1.5	
CC1(C)N=C(N)N=C(N)N1c1cccc(COc2ccc(Cl)c(Cl)c2Cl)c1 [3-CH2Oϕ, 2',3',4'Cl3]	6.09	6.25	2.5	
CC1(C)N=C(N)N=C(N)N1c1cccc(COc2cccc(CO)c2)c1 [3-CH2Oϕ, 3'CH2OH]	6.01	5.74	0.9	
CC(=O)Nc1cccc(OCc2cccc(N3C(N)=NC(N)=NC3(C)C)c2)c1 [3-CH2Oϕ, 3'NHAc]		6.64		
COc1cccc(OCc2cccc(N3C(N)=NC(N)=NC3(C)C)c2)c1 [3-CH2Oϕ, 3'OCH3]	6.44	6.26	1.1	
CC1(C)N=C(N)N=C(N)N1c1cccc(COc2cccc3ccccc23)c1 [3-CH20(a)Naphthyl]	6.25	6.44		Selectivity, Ki (human)/Ki(Pc) [1]: 2.6
Cc1cccc(OCc2cccc(N3C(N)=NC(N)=NC3(C)C)c2)c1 [3-CH20ϕ, 3'CH3]	6.19	5.85	0.8	
CC1(C)N=C(N)N=C(N)N1c1cccc(COc2cccc(Cl)c2)c1 [3-CH20ϕ, 3'Cl]	6.33	6.07	0.9	
CCCCCCOc1cccc(N2C(N)=NC(N)=NC2(C)C)c1 [3-O(CH2)5CH3]	5.19	5.82	7.2	
CCCCCCCCCCCOc1cccc(N2C(N)=NC(N)=NC2(C)C)c1 [3-O(CH2)10CH3]	5.06	5.88	11.3	
CCCCCCCCCCCCCCOc1cccc(N2C(N)=NC(N)=NC2(C)C)c1 [3-O(CH2)13CH3]	4.50	4.63	2.3	
CC1(C)N=C(N)N=C(N)N1c1cccc(OCCOc2cccc(C(F)(F)F)c2)c1 [3-O(CH2)20ϕ, 3'CF3]		5.80		
CC1(C)N=C(N)N=C(N)N1c1ccc(C(F)(F)F)cc1 [-CF3]				pIC50 (P. carinii DHFR; 100 µM NADPH, 100 µM DHF, 1 nM P. carinii DHFR, 25 C, read-out: IC5O (100 µM DHF)): 4.60; pKi (P. carinii DHFR; read-out: Ki): 7.06
Cc1ccc(N2C(N)=NC(N)=NC2(C)C)cc1 [-CH3]				pIC50 (P. carinii DHFR): 4.52; pKi (P. carinii DHFR): 6.98
CC1(C)N=C(N)N=C(N)N1c1ccc([N+](=O)[O-])cc1 [-NO2]				pIC50 (P. carinii DHFR): < 2.08; pKi (P. carinii DHFR): < 5.54
COc1ccc(N2C(N)=NC(N)=NC2(C)C)cc1 [-OCH3]				pIC50 (P. carinii DHFR): 4.05; pKi (P. carinii DHFR): 6.50
CC1(C)N=C(N)N=C(N)N1c1ccc(O)cc1 [-OH]				pIC50 (P. carinii DHFR): 3.60; pKi (P. carinii DHFR): 6.06
CCOC(=O)c1cccc(N2C(N)=NC(N)=NC2(C)C)c1 [Substituent 3-CO2Et]	3.94	3.78	1.2	
CC(=O)c1cccc(N2C(N)=NC(N)=NC2(C)C)c1 [Substituent 3-COCH3]	4.68			
CC1(C)N=C(N)N=C(N)N1c1cccc([N+](=O)[O-])c1 [Substituent 3-NO2]	5.56	5.02	0.7	
CC1(C)N=C(N)N=C(N)N1c1cccc(OCc2ccccc2)c1 [Substituent 3-OCH2ϕ]		5.34		
CCOc1cccc(N2C(N)=NC(N)=NC2(C)C)c1 [Substituent 3-OEt]	4.86			
CC1(C)N=C(N)N=C(N)N1c1ccc(Cl)cc1 [Substituent 4-Cl, 4,6-diamino-1-(p-chlorophenyl)1,2-dihydro-2,2-dimethyl-s-triazine, reference compound]		5.12		times more tightly bound to human DHFR than to P. carinii DHFR (recombinant human DHFR; human DHFR versus P. carinii DHFR): ~2.5 times; pIC50 (P. carinii DHFR): 4.70; pKi (P. carinii DHFR): 7.15; pKi [1]: 6.96
